Drawing on US9492382B2, “Hyperbranched polyester having a hydrophobic core for solubilizing active ingredients of low solubility” (BASF SE, priority 2009, dated 2016), this text covers solubility for one molecule.

SMILES strings stand for the structures.

The data set can be described thus: physchem. As to conditions: pH 7, aqueous buffer, thermodynamic from solid. The protocol: 2 g of polymer were weighed out into a 50 ml glass beaker. Then 0.2 g of each active ingredient was weighed out into the batch to give a supersaturated solution. […] The mixture was then stirred at room temperature for 72 hours, using a magnetic stirrer. After a rest time of one hour, excess (i.e., unsolubilized) active ingredient was removed by filtration. The resulting clear or opaque solution was then analyzed for its active ingredient content by means of UV spectroscopy or HPLC.
The results are compiled in tables 2 and 3.

`Clc1ccccc1C(c1ccccc1)(c1ccccc1)n1ccnc1` [Clotrimazole] returned a solubility at 72 h of less than 100 µg/mL.
